Data as given in paper PMC5719086, “Effective in vivo gene delivery with reduced toxicity, achieved by charge and fatty acid -modified cell penetrating peptide” (Scientific Reports, 2017).
Read-outs that look alike come from different tables or passages of the source. Square brackets hold non-standard residues; d marks the D form. Peptide text beside a SMILES is read from it. * marks the point of attachment. Docosanoyl = CCCCCCCCCCCCCCCCCCCCCC(=O)*; Stearoyl = CCCCCCCCCCCCCCCCCC(=O)*; Decanoyl = CCCCCCCCCC(=O)*; Orn = NCCC[C@H](N)C(=O)O

Assays:
mouse RBC = experiment: Hemolysis assay (activity towards cell membranes); type: cell-based; settings: 1 h 37 °C, triplicates
Procedure: The ability of the peptides to lyse the red blood cells (RBC) in PBS was used as a measure of membrane activity. To obtain fresh mouse RBC, blood was collected from the saphenous vein using sodium-heparinized (80 iu/ml ± 30%) blood collection capillaries (Marienfeld, Germany) and transferred to heparinized blood collecting tubes (Sarstedt, Germany). To isolate RBCs, the whole blood was centrifuged for 15 minutes at 300 × g, followed by removal of the plasma. The RBCs were then washed three times with 1 × PBS (RBC pelleting with 15 minutes at 300 × g). The resulting RBCs were then resuspended in PBS at 4% (v/v).
For the analysis, 200 μl of RBC suspension was added to 200 μl of peptide solution or peptide/pDNA complexes in 5% glucose (final RBC concentration 2%) and gently vortexed. The peptide/pDNA complexes were prepared using a fixed 1 μg of pDNA and varying amount of the peptide. Following this, samples were incubated for 1 hour at 37 °C with gentle stirring. After incubation, the RBCs were pelleted (15 minutes at 300 × g) and the amount of hemoglobin in the supernatant was assessed by measuring the absorbance at 540 nm using a 96-well microplate reader. The experiments were conducted in triplicates.
100% of hemolysis was defined as the RBCs treated with 0.1% Triton-X100 in PBS and 0% was obtained with cells incubated in 5% glucose solution. % of hemolysis was calculated by the formula: % Hemolysis = [(Asample − Aglucose)/Atriton − Aglucose)] × 100.

proteinase K = target: T1, proteinase K (Parengyodontium album, UniProt P06873); experiment: Proteinase K treatment of CPP/pDNA complexes; type: in vitro ADME; settings: 26 °C; for stability of the complexes against proteinase K (in words): CPP/pDNA complexes at N/P2, accessible pDNA over time by intercalating dye; for Proteinase K: t1/2 (min) of the complexed pDNA (95%CI): CPP/pDNA complexes at N/P2 in MQ, proteinase K ~2.4 U per well, accessible pDNA by PicoGreen fluorescence, normalized to free pDNA
T1 construct: purchased Thermo Scientific
T1 sequence (P06873 106-384): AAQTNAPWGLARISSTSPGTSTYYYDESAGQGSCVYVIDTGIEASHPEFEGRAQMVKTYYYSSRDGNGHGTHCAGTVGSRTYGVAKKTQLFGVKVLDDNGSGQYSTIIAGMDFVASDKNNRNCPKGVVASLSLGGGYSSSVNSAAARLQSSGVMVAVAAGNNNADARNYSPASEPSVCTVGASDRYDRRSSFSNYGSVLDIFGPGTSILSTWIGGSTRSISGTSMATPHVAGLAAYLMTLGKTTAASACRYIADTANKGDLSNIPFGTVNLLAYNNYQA
Procedure: For the proteinase K treatment, 30 μl of pre-formed CPP/pDNA complex solution (0.3, 0.2, 0.1 and 0.05 µg of pDNA per sample) or CPP in MQ was transferred to a black 96-well plate and 90 µl of MQ was added. After a short period of mixing, fluorescent DNA intercalating dye dilution was added (Quant-iT™ PicoGreen®, ThermoFisher Scientific) and incubated for 5 minutes at room temperature. The fluorescence was measured (Synergy MX, BioTek; λex 492 and λem 535) to quantify the initial accessibility of pDNA. Thereafter 10 μl of Proteinase K (Thermo Scientific) was added with the final enzyme concentration ~2.4 U per well. Fluorescence was measured over an indicated period at 26 °C. The readings were normalized against the fluorescence of free pDNA.

[1] = Complex stability in FBS, gel shift assay; settings: 37 °C; for pDNA migration from complexes after 48 h in serum (in words): serum and/or triton + heparin dissociation
Procedure: Then the samples were mixed with the DNA loading dye and electrophoresed exactly as stated above in the Gel shift assay description, using 0.1 µg of pDNA per lane. ZipRuler Express DNA Ladder 2 (ThermoFisher Scientific) was added to each gel.
The stability of the complexes after incubation in FBS, visualized by gel shift assay.

[2] = naked peptide in 5% glucose, mouse RBC 2% final in PBS, hemoglobin absorbance 540 nm, 100% = 0.1% Triton X-100, read-out: EC50 (μM) of CPP (membrane activity, concentration required to lyse 50% of the cells)
[3] = peptide/pDNA complexes, fixed 1 μg pDNA and varying peptide, mouse RBC 2% final, absorbance 540 nm, read-out: EC50 (μM) of CPP/pDNA (membrane activity)

Compound | EC50 (mouse RBC; [2]) | EC50 (mouse RBC; [3]) | stability of the complexes against proteinase K (in words) (proteinase K) | Proteinase K: t1/2 (min) of the complexed pDNA (95%CI) (proteinase K) | time to pDNA degradation (DNA smear) in serum ([1]; 50% FBS, EtBr) | onset of DNA migration from complexes in serum ([1]; complexes N/P2 (jetPEI N/P8) in 50% FBS, EtBr) | pDNA migration from complexes after 48 h in serum (in words) ([1]; 50% FBS)
CC(C)C[C@H](NC(=O)[C@H](CC(C)C)NC(=O)[C@H](CCCN)NC(=O)[C@H](CCCN)NC(=O)[C@H](CC(C)C)NC(=O)[C@H](C)NC(=O)[C@H](C)NC(=O)[C@H](C)NC(=O)[C@H](C)NC(=O)[C@H](CC(C)C)NC(=O)[C@H](CCCN)NC(=O)[C@H](CCCN)NC(=O)[C@H](CC(C)C)NC(=O)[C@H](CC(C)C)NC(=O)[C@H](CCCCN)NC(=O)CNC(=O)[C@H](CC(C)C)NC(=O)[C@H](CC(C)C)NC(=O)[C@H](Cc1ccc(O)cc1)NC(=O)CNC(=O)[C@H](C)N)C(N)=O [C0-PF14] (H-AGYLLGKLL[Orn][Orn]LAAAAL[Orn][Orn]LL-NH2) | 5.36 µM | 7.09 µM | clearly a favorable substrate to the proteinase | 0.5 (−0.8 ± 1.5) min | about 24 h | ≤ 0.5 h | –
CCCCCCCCCC(=O)N[C@@H](C)C(=O)NCC(=O)N[C@@H](Cc1ccc(O)cc1)C(=O)N[C@@H](CC(C)C)C(=O)N[C@@H](CC(C)C)C(=O)NCC(=O)N[C@@H](CCCCN)C(=O)N[C@@H](CC(C)C)C(=O)N[C@@H](CC(C)C)C(=O)N[C@@H](CCCN)C(=O)N[C@@H](CCCN)C(=O)N[C@@H](CC(C)C)C(=O)N[C@@H](C)C(=O)N[C@@H](C)C(=O)N[C@@H](C)C(=O)N[C@@H](C)C(=O)N[C@@H](CC(C)C)C(=O)N[C@@H](CCCN)C(=O)N[C@@H](CCCN)C(=O)N[C@@H](CC(C)C)C(=O)N[C@@H](CC(C)C)C(N)=O [C10-PF14] (Decanoyl-AGYLLGKLL[Orn][Orn]LAAAAL[Orn][Orn]LL-NH2) | 0.36 µM | 0.86 µM | – | 26.7 (20.1 ± 32.5) min | – | – | less migration and less degradation
CCCCCCCCCCCCCCCCCCCCCC(=O)N[C@@H](C)C(=O)NCC(=O)N[C@@H](Cc1ccc(O)cc1)C(=O)N[C@@H](CC(C)C)C(=O)N[C@@H](CC(C)C)C(=O)NCC(=O)N[C@@H](CCCCN)C(=O)N[C@@H](CC(C)C)C(=O)N[C@@H](CC(C)C)C(=O)N[C@@H](CCCN)C(=O)N[C@@H](CCCN)C(=O)N[C@@H](CC(C)C)C(=O)N[C@@H](C)C(=O)N[C@@H](CCCN)C(=O)N[C@@H](CCCN)C(=O)N[C@@H](C)C(=O)N[C@@H](CC(C)C)C(=O)N[C@@H](CCCN)C(=O)N[C@@H](CCCN)C(=O)N[C@@H](CC(C)C)C(=O)N[C@@H](CC(C)C)C(N)=O [C22-PF14-O] (Docosanoyl-AGYLLGKLL[Orn][Orn]LA[Orn][Orn]AL[Orn][Orn]LL-NH2) | – | – | virtually inaccessible to the enzyme | – | – | – | migration of pDNA from some of the complexes could be observed
CCCCCCCCCCCCCCCCCCCCCC(=O)N[C@@H](C)C(=O)NCC(=O)N[C@@H](Cc1ccc(O)cc1)C(=O)N[C@@H](CC(C)C)C(=O)N[C@@H](CC(C)C)C(=O)NCC(=O)N[C@@H](CCCCN)C(=O)N[C@@H](CC(C)C)C(=O)N[C@@H](CC(C)C)C(=O)N[C@@H](CCCN)C(=O)N[C@@H](CCCN)C(=O)N[C@@H](CC(C)C)C(=O)N[C@@H](C)C(=O)N[C@@H](C)C(=O)N[C@@H](C)C(=O)N[C@@H](C)C(=O)N[C@@H](CC(C)C)C(=O)N[C@@H](CCCN)C(=O)N[C@@H](CCCN)C(=O)N[C@@H](CC(C)C)C(=O)N[C@@H](CC(C)C)C(N)=O [C22-PF14] (Docosanoyl-AGYLLGKLL[Orn][Orn]LAAAAL[Orn][Orn]LL-NH2) | 0.64 µM | 1.47 µM | – | 162.7 (159.6 ± 166.7) min | – | – | less migration and less degradation
CCCCCCCCCCCCCCCCCC(=O)N[C@@H](C)C(=O)NCC(=O)N[C@@H](Cc1ccc(O)cc1)C(=O)N[C@@H](CC(C)C)C(=O)N[C@@H](CC(C)C)C(=O)NCC(=O)N[C@@H](CCCCN)C(=O)N[C@@H](CC(C)C)C(=O)N[C@@H](CC(C)C)C(=O)N[C@@H](CCC(=O)O)C(=O)N[C@@H](CCCN)C(=O)N[C@@H](CC(C)C)C(=O)N[C@@H](C)C(=O)N[C@@H](C)C(=O)N[C@@H](C)C(=O)N[C@@H](C)C(=O)N[C@@H](CC(C)C)C(=O)N[C@@H](CCCN)C(=O)N[C@@H](CCCN)C(=O)N[C@@H](CC(C)C)C(=O)N[C@@H](CC(C)C)C(N)=O [PF14-E] (Stearoyl-AGYLLGKLLE[Orn]LAAAAL[Orn][Orn]LL-NH2) | 0.67 µM | 2.36 µM | – | 16.7 (10.5 ± 21.8) min | – | – | –
CCCCCCCCCCCCCCCCCC(=O)N[C@@H](C)C(=O)NCC(=O)N[C@@H](Cc1ccc(O)cc1)C(=O)N[C@@H](CC(C)C)C(=O)N[C@@H](CC(C)C)C(=O)NCC(=O)N[C@@H](CCCCN)C(=O)N[C@@H](CC(C)C)C(=O)N[C@@H](CC(C)C)C(=O)N[C@@H](CCCN)C(=O)N[C@@H](CCCN)C(=O)N[C@@H](CC(C)C)C(=O)N[C@@H](C)C(=O)N[C@@H](CCCN)C(=O)N[C@@H](CCCN)C(=O)N[C@@H](C)C(=O)N[C@@H](CC(C)C)C(=O)N[C@@H](CCCN)C(=O)N[C@@H](CCCN)C(=O)N[C@@H](CC(C)C)C(=O)N[C@@H](CC(C)C)C(N)=O [PF14-O] (Stearoyl-AGYLLGKLL[Orn][Orn]LA[Orn][Orn]AL[Orn][Orn]LL-NH2) | 0.6 µM | 1.17 µM | – | 94.2 (90.7 ± 97.4) min | – | – | migration of pDNA from some of the complexes could be observed
